Source: patent US5976523A, “Method for healing compromised tissues using pyrimidine derivatives” (Mitsui Pharmaceuticals, Inc., priority 1995, dated 1999)
Where a name gives a salt, the structure may show the parent alone.

Assays:
[1] = system: primary cultured gastric mucosal cells; assay: Wound repair model with primary cultured gastric mucosal cells; type: cell-based, rabbit
Experimental: Primary cultured gastric mucosal cells were prepared by mechanically peeling and mincing the gastric mucosa of a rabbit having a body weight of 2 kg and then digesting the minced gastric mucosa with 0.07% collagenase. The primary cultured gastric mucosal cells were cultured at a cell concentration of 3.3×10^5 cells/ml in F-12 culture medium containing 10% fetal calf serum added therein. For this cultivation, a culture dish (60 mm in diameter) coated with collagen type I was used. […] Using an anti-BrdU antibody, the cells in the S phase were stained to identify proliferated cells.
Their effects on the process of restoration were measured under the above-described parameters. […] In each of the control group and the medicament-added groups, the area of the wounded region was measured at the 0th hour, 12th hour, 24th hour, 36th hour and 48th hour. The measurement results will be given in this order.
The control group and the groups added with the medicament at the respective concentrations were each subjected to the experiment with n=5. The results will each be presented as a (mean±S. D.) mm2. A test of significance was conducted relative to the control group. * stands for p<0.05, ** for p<0.01, *** for p<0.001. A further test of significance was conducted relative to a group added with 10 ng/ml of EGF. + stands for p<0.05, and ++ for <0.01.

hepatocytes = assay: DNA and protein synthesis in primary cultured hepatocytes; type: cell-based, SD rat
Excerpt: (§1) As fulminant hepatitis may develop hepatocellular regeneration failure despite a high HGF concentration in blood, use of a medicament capable of enhancing effects of a growth factor is desired. Activities of a compound according to the present invention as a hepatic medicine were investigated using primary cultured cells and Ito (star) cells of rat.
An SD male rat of about 200 g in body weight was sacrificed by perfusion of collagenase-containing physiological saline. Hepatocytes were immediately collected and then spread at 5.0×10^4 cells/cm^2 over plates, followed by the initiation of cultivation. Two hours later, the culture medium was replaced by a fresh supply of the culture medium. Twenty-four hours later, EGF and [^3 H]-leucine (1 μCi/ml) were added to half the number of the plates with or without addition of 2-piperidino-7-methyl-6-oxo-5,6-dihydro(7H)pyrro[2,3-d]pyrimidine maleate, respectively. At the same time, EGF was added to the remaining plates with or without addition of the invention compound, respectively. Forty-six hours later, the latter plates were both added further with [^3 H]-tymidine (2 μCi/ml). Forty-eight hours later, each culture was filtered under suction to harvest the cells so cultivated. Trichloroacetic acid (TCA) was added to the thus-harvested cells to obtain a TCA precipitate. The TCA precipitate was formed into a pellet. The pellets which had been obtained from the [^3 H]-tymidine-added cultures, respectively, were each dissolved with 0.1N NaOH. The resulting solution was added to a liquid scintillator and the amount of DNA synthesized by the cells was measured by a liquid scintillation counter. Likewise, the pellets which had been obtained from the [^3 H]-leucine-added cultures, respectively, were each boiled at 70° C. to extract soluble matter. The extract so obtained was also added with TCA to obtain a TCA precipitate. The TCA precipitate was dissolved with 0.1N NaOH. The resulting solution was added to the liquid scintillator and the amount of proteins synthesized by the cells was measured by the liquid scintillation counter.

Ito (star) cells = assay: DNA and collagen synthesis and αSM expression in Ito (star) cells; type: cell-based, SD rat
Excerpt: as §1
On the other hand, an SD male rat of about 300 g in body weight was sacrificed by perfusion of physiological saline containing collagenase and proteinase. Ito (star) cells were collected and then spread at 1.25×10^5 cells/cm^2 over plates, followed by the initiation of cultivation. The cultivation was conducted for 6 days. In a manner similar to the procedures described above, some of the plates were added with the invention compound and [^3 H]-leucine 24 hours before harvest, while the remaining plates were added with the invention compound 24 hours before harvest and were then added with [^3 H]-tymidine two hours before the harvest. The synthesized amount of DNA and that of proteins were measured. Further, after Ito cells were cultured for 6 days, the invention compound and b-FGF were added. Subsequent to cultivation for 30 minutes, […] of ascorbic acid and 0.5 mM of β-aminopropionitrile fumarate were added, followed by cultivation for 1 hour. [2,3-^3 H]-proline (10 μCi/ml) was added, followed by further cultivation for 24 hours. The culture was separated into the culture medium and the resultant cells, and a TCA precipitate was formed. After the precipitate was dissolved with 0.1N NaOH, the cells were incubated in the presence of bacterial collagenase. The reaction was terminated with TCA-tannic acid, followed by the formation of a pellet. A supernatant fraction was added to the liquid scintillator and the amount of proteins synthesized by the cells was measured by the liquid scintillation counter.

[2] = system: CAMs (chorioallantoic membranes); assay: Angiogenesis on chorioallantoic membranes (CAM); type: in vivo, chick; conditions: day 3
Experimental: For a bFGF, various assay systems assessing the angiogenesis activity of the bFGF as an index are usable. The shells of chick embryos are fenestrated centrally corresponding to the air spaces thereof, whereby the chorioallantoic membranes (CAMS) are exposed. Solutions of the bFGF and a test medicament at various concentrations were applied onto the respective CAMs. Incubation was continued. Several days later, the degrees of angiogenesis were investigated under a microscope. This method is preferably employed. […] The test medicament is therefore found to be useful for the reduction of a time required for the construction of a skin-equivalent tissue. […] Also with respect to a VEGF, its angiogenesis activity can be assayed in a similar system.
The shells of eggs on the 10th day after fertilization were fenestrated centrally corresponding to air spaces thereof, whereby CAMs (chorioallantoic membranes) were exposed. A nylon film in the form of a square of 3 mm in side was placed over the CAM, and onto the nylon film, a solution of bFGF as a growth and/or differentiation factor or the pyrimidine compound according to the present invention was dropped in an amount of 8 ul. Incubation was continued at 38° C. On the 72nd hour, the eggs were moved to a cool place controlled at 4° C. After the eggs were left over for 2 to 3 hours there, the degree of angiogenesis in each egg was investigated under a microscope. The angiogenesis was determined based on the number of radial blood vessels equal to or larger than 0.1 mm in diameter. Onto the nylon disk placed over the CAMS, 1, 10, and 100 ng/ml solutions of recombinant human bFGF (product of Genzyme Corporation) in physiological saline and 0.01 to 1 mM solutions of the individual pyrimidine compound in physiological saline were applied singly or in combination.

bone defect (tibia) = assay: Rat bone defect model, formation of hyaline cartilage matrix; type: in vivo; conditions: bFGF (0.5 μg) pellet, 7th day
Excerpt: Action of 2-piperazino-6-methyl-5-oxo-5,6-dihydro(7H)pyrro[3,4-d]pyrimidinemaleate on in vivo chondrogenesis was studied in detail by preparing a rat bone defect model which permits observation of bFGF-derived formation of a hyaline cartilage matrix. Embedment of a bFGF-containing pellet in a bone defect of the model permits easy observation of formation of a hyaline cartilage matrix under the periosteum around the bone defect. Rats were divided into three groups. The rats in one of the groups were each embedded in a formed bone defect (diameter: 2.6 mm) thereof with a hydroxyethyl methacrylate pellet (10 mg) which contained bFGF (0.5 μg). The rats in another one of the groups were each embedded likewise with a hydroxyethyl methacrylate pellet (10 mg) which contained bFGF (0.5 μg) and the invention compound (0.5 mg). The rats in the remaining group, that is, a control group were each embedded similarly with a pellet which contained physiological saline. After the rats in all the three groups were sacrificed seven days later, action of bFGF or the invention compound on the process of chondrogenesis on enchondral ossification around the bone defect was investigated. On the 7th day after the formation of the bone defect, the tibia of each rat was histologically examined around the bone defect.

[3] = 1 μM to 100 μM, irrespective of b-FGF

**Q.** With CN1C(=O)Cc2cnc(N3CCCCC3)nc21 [Compound A, 2-piperidino-7-methyl-6-oxo-5,6-dihydro(7H)pyrro[2,3-d]pyrimidine maleate] as the compound, how does the “area of the wounded region (mean±S.D.)” value ([1]; EGF + 0.01 mM compound, 0th hour) read?
**A.** Its value is 2.06±0.05 mm2.

**Q.** What about the “area of the wounded region (mean±S.D.)” value ([1]; EGF + 0.01 mM compound, 12th hour) of the same compound?
**A.** Its value is 0.72±0.36 mm2.

**Q.** What about the “area of the wounded region (mean±S.D.)” value ([1]; EGF + 0.01 mM compound, 24th hour) of the same compound?
**A.** Its value is 0.39±0.04 mm2.

**Q.** What about the “area of the wounded region (mean±S.D.)” value ([1]; EGF + 0.01 mM compound, 36th hour) of the same compound?
**A.** Its value is 0.05±0.04 mm2.

**Q.** And the “area of the wounded region (mean±S.D.)” value ([1]; EGF + 0.01 mM compound, 48th hour)?
**A.** The value was 0 mm2.

**Q.** And the “area of the wounded region (mean±S.D.)” value ([1]; EGF + 0.1 mM compound, 0th hour)?
**A.** The value was 2.08±0.08 mm2.

**Q.** What about the “area of the wounded region (mean±S.D.)” value ([1]; EGF + 0.1 mM compound, 12th hour) of the same compound?
**A.** Its value is 0.80±0.04 mm2.

**Q.** What about the “area of the wounded region (mean±S.D.)” value ([1]; EGF + 0.1 mM compound, 24th hour) of the same compound?
**A.** The value was 0.24±0.05 mm2.

**Q.** And the “area of the wounded region (mean±S.D.)” value ([1]; EGF + 0.1 mM compound, 36th hour)?
**A.** Its value is 0 mm2.

**Q.** And the “area of the wounded region (mean±S.D.)” value ([1]; EGF + 0.1 mM compound, 48th hour)?
**A.** Its value is 0 mm2.

**Q.** And the “effect on EGF-induced acceleration of cell restoration” value ([1]; compound 0.01-0.1 mM with EGF)?
**A.** Its value is “further promoted the EGF-induced acceleration of cell restoration in a concentration-dependent fashion”.

**Q.** What about the repairing effects ([1]; compound alone 0.01-0.1 mM, absence of EGF) of the same compound?
**A.** Its repairing effects is “did not show repairing effects in the absence of EGF”.

**Q.** What about the “concentration of albumin in the supernatant” value (hepatocytes; 10 μM compound, with EGF) of the same compound?
**A.** The value was “no change was observed”.

**Q.** And the “expression of mRNA (albumin)” value (hepatocytes; 10 μM compound, with EGF)?
**A.** Its value is “no change was observed”.

**Q.** What about the “synthesis of DNA by the hepatocytes” value (hepatocytes; 10 μM compound, with EGF) of the same compound?
**A.** Its value is “significantly increased”.

**Q.** And the “synthesis of DNA by the hepatocytes” value (hepatocytes; without EGF)?
**A.** The value was “not recognized to promote the synthesis of DNA”.

**Q.** What about the “synthesis of DNA by the star cells” value (Ito (star) cells; [3]) of the same compound?
**A.** The value was “lowered depending on the amount of the invention compound”.

**Q.** And the “synthesis of collagen by the star cells” value (Ito (star) cells; [3])?
**A.** Its value is “lowered depending on the amount of the invention compound”.

**Q.** And the “expression of αSM” value (Ito (star) cells; compound with b-FGF, quantity-dependent)?
**A.** The value was “allowed to recover by the addition of the invention compound in a quantity-dependent manner”.

**Q.** What about the “expression of α2-smooth muscle actin (αSM)” value (Ito (star) cells; compound, absence of b-FGF) of the same compound?
**A.** Its value is “lowered by the addition of the invention compound”.

**Q.** How did the “number of new blood vessels (M±SE)” value ([2]; bFGF alone 1 ng/ml) turn out when “bFGF: basic fibroblast growth factor; recombinant human bFGF (product of Genzyme Corporation) in Example 26” was run?
**A.** The value was 4.1±0.4.

**Q.** What about the “number of new blood vessels (M±SE)” value ([2]; bFGF alone 10 ng/ml) of the same compound?
**A.** Its value is 4.3±0.7.

**Q.** What about the “number of new blood vessels (M±SE)” value ([2]; bFGF alone 100 ng/ml) of the same compound?
**A.** Its value is 6.1±1.1.

**Q.** And the “formation of a hyaline cartilage matrix” value (bone defect (tibia))?
**A.** Its value is “in a small amount”.

**Q.** And the “expression of αSM” value (Ito (star) cells; b-FGF alone)?
**A.** Its value is “lowered by the presence of b-FGF”.
